Assay results published in patent US10760110B2, “Antibiotic testing and screening system” (priority 2017, dated 2020).
Where two headings read alike, the source gives them in different places.

Key:
[1] = system: K. pneumoniae NVT1001 gyrA/parC and gyrA/parC/ramR mutants and revertants; experiment: Etest MIC of quinolones, gyrA/parC and gyrA/parC/ramR mutants and their revertants (Table 11); type: cell-based; conditions: Klebsiella pneumoniae
Text: The allelic-exchange method was used to restore the wild-type gene in the K. pneumoniae NVT1001 mutants with constructed chromosome-mediated resistance mechanisms, as described by Tsai et al.^19 Briefly, a DNA fragment of the entire wild-type gene sequence along with flanking regions was amplified from K. pneumoniae NVT1001 using PCR with specific primers. The resulting PCR fragment was digested and then cloned into pUT-KB. For homologous recombination, this plasmid was transformed into E. coli S17-1 λpir^23 via electroporation and mobilized into the K. pneumoniae NVT1001 mutant via conjugation. […] After incubation in 20 mL BHI broth for 6 hours at 37° C. in the absence of kanamycin, the fully grown cultures were spread onto LB agar plates supplemented with 10% sucrose. After the double crossover occurred, the sucrose-resistant and kanamycin-susceptible colonies were selected, and the restoration of the wild-type gene was confirmed via DNA sequencing.
(§1) The MICs of antibiotics were determined using the Etest (Biodisk AB, Sweden) according to the manufacturer's instructions. The MICs from the Etest, which fall between standard two-fold dilutions, were rounded up to the next highest two-fold value. The MICs of ceftazidime and cefotaxime against K. pneumoniae NVT1001 harbouring the pACYC177 plasmid with blaOXA-48 were further determined using a broth microdilution test according to the recommendations of the CLSI,^25 and the results were interpreted according to the breakpoints established by the CLSI in 2017.^25 Meanwhile, due to the lack of CLSI breakpoints in 2016 and 2017, the results for cephalothin were interpreted according to the breakpoints established by the CLSI in 2015,^26 and the results for moxifloxacin were interpreted according to the breakpoints established by the EUCAST in 2017.^27

[2] = system: K. pneumoniae NVT1001 strains with QnrB, QnrS or AAC(6′)-Ib-cr plasmids; experiment: Etest MIC of quinolones, GyrA/ParC mutations, ΔramR and/or QnrB, QnrS or AAC(6′)-Ib-cr (Table 12); type: cell-based; conditions: Klebsiella pneumoniae
Procedure: DNA fragments of the resistance genes along with their flanking regions were amplified from clinical plasmids via PCR with specific primer pairs. The resulting PCR fragments were digested and then cloned into the plasmid pACYC177 or pACYC184. The resulting plasmids were then transformed into K. pneumoniae strain NVT1001 via electroporation. The recombinant bacteria were plated onto LB agar plates containing kanamycin (50 mg/L) or chloramphenicol (50 mg/L), and the presence of the cloned gene was confirmed via PCR and DNA sequencing.
as §1

SMILES: C[C@H]1COc2c(N3CCN(C)CC3)c(F)cc3c(=O)c(C(=O)O)cn1c23 [Levofloxacin, levofloxacin]
- MIC ([1]; S83F/D87N/S80I mutant): 8 µg/mL
- MIC ([1]; S83F/D87N/S80I::F83S/N87D/I80S revertant, read-out: MIC): 0.06 µg/mL
- MIC ([1]; S83F/D87N/S80I::I80S revertant, read-out: MIC): 0.5 µg/mL
- MIC ([1]; S83F/D87N/S80I::N87D revertant, read-out: MIC): 1 µg/mL
- MIC ([1]; S83F/D87N/S80I::N87D/I80S revertant, read-out: MIC): 0.5 µg/mL
- MIC ([1]; S83I/D87N/S80I mutant): 8 µg/mL
- MIC ([1]; S83I/D87N/S80I::I80S revertant, read-out: MIC): 1 µg/mL
- MIC ([1]; S83I/D87N/S80I::I83S/N87D/I80S revertant, read-out: MIC): 0.06 µg/mL
- MIC ([1]; S83I/D87N/S80I::N87D revertant, read-out: MIC): 4 µg/mL
- MIC ([1]; S83I/D87N/S80I::N87D/I80S revertant, read-out: MIC): 1 µg/mL
- MIC ([1]; S83L/D87N/S80I mutant): 8 µg/mL
- MIC ([1]; S83L/D87N/S80I::I80S revertant, read-out: MIC): 1 µg/mL
- MIC ([1]; S83L/D87N/S80I::L83S/N87D/I80S revertant, read-out: MIC): 0.06 µg/mL
- MIC ([1]; S83L/D87N/S80I::N87D revertant, read-out: MIC): 2 µg/mL
- MIC ([1]; S83L/D87N/S80I::N87D/I80S revertant, read-out: MIC): 1 µg/mL
- MIC ([1]; S83Y/D87N/S80I mutant): 4 µg/mL
- MIC ([1]; S83Y/D87N/S80I::I80S revertant, read-out: MIC): 0.5 µg/mL
- MIC ([1]; S83Y/D87N/S80I::N87D revertant, read-out: MIC): 1 µg/mL
- MIC ([1]; S83Y/D87N/S80I::N87D/I80S revertant, read-out: MIC): 0.5 µg/mL
- MIC ([1]; S83Y/D87N/S80I::Y83S/N87D/I80S revertant, read-out: MIC): 0.06 µg/mL
- MIC ([1]; ΔramR/S83I/D87N/S80I mutant): > 32 µg/mL
- MIC ([1]; ΔramR/S83I/D87N/S80I:: ramR/I83S revertant): 0.5 µg/mL
- MIC ([1]; ΔramR/S83I/D87N/S80I:: ramR/I83S/I80S revertant): 0.5 µg/mL
- MIC ([1]; ΔramR/S83I/D87N/S80I:: ramR/I83S/N87D revertant): 0.06 µg/mL
- MIC ([1]; ΔramR/S83I/D87N/S80I::I83S/N87D/I80S revertant): 1 µg/mL
- MIC ([1]; ΔramR/S83I/D87N/S80I::N87D revertant): > 32 µg/mL
- MIC ([1]; ΔramR/S83I/D87N/S80I::N87D/I80S revertant): 8 µg/mL
- MIC ([1]; ΔramR/S83I/D87N/S80I::ramR/I83S/N87D/I80S): 0.06 µg/mL
- MIC ([2]; AAC(6′)-Ib-cr on pACYC177, S83I mutant): 0.5 µg/mL
- MIC ([2]; AAC(6′)-Ib-cr on pACYC177, S83I/D87N/S80I mutant): 8 µg/mL
- MIC ([2]; AAC(6′)-Ib-cr on pACYC177, S83I/S80I mutant): 2 µg/mL
- MIC ([2]; AAC(6′)-Ib-cr on pACYC177, WT (NVT1001), read-out: MIC): 0.06 µg/mL
- MIC ([2]; AAC(6′)-Ib-cr on pACYC177, ΔramR mutant): 1 µg/mL
- MIC ([2]; AAC(6′)-Ib-cr on pACYC177, ΔramR/S83I mutant): 8 µg/mL
- MIC ([2]; AAC(6′)-Ib-cr on pACYC177, ΔramR/S83I/D87N/S80I mutant): > 32 µg/mL
- MIC ([2]; AAC(6′)-Ib-cr on pACYC177, ΔramR/S83I/S80I mutant): > 32 µg/mL
- MIC ([2]; QnrB on pACYC177, S83I mutant): 2 µg/mL
- MIC ([2]; QnrB on pACYC177, S83I/D87N/S80I mutant): > 32 µg/mL
- MIC ([2]; QnrB on pACYC177, S83I/S80I mutant): 16 µg/mL
- MIC ([2]; QnrB on pACYC177, WT (NVT1001), read-out: MIC): 1 µg/mL
- MIC ([2]; QnrB on pACYC177, ΔramR mutant): 8 µg/mL
- MIC ([2]; QnrB on pACYC177, ΔramR/S83I mutant): > 32 µg/mL
- MIC ([2]; QnrB on pACYC177, ΔramR/S83I/D87N/S80I mutant): > 32 µg/mL
- MIC ([2]; QnrB on pACYC177, ΔramR/S83I/S80I mutant): > 32 µg/mL
- MIC ([2]; QnrS on pACYC177, S83I mutant): 4 µg/mL
- MIC ([2]; QnrS on pACYC177, S83I/D87N/S80I mutant): > 32 µg/mL
- MIC ([2]; QnrS on pACYC177, S83I/S80I mutant): 32 µg/mL
- MIC ([2]; QnrS on pACYC177, WT (NVT1001), read-out: MIC): 1 µg/mL
- MIC ([2]; QnrS on pACYC177, ΔramR mutant): 8 µg/mL
- MIC ([2]; QnrS on pACYC177, ΔramR/S83I mutant): > 32 µg/mL
- MIC ([2]; QnrS on pACYC177, ΔramR/S83I/D87N/S80I mutant): > 32 µg/mL
- MIC ([2]; QnrS on pACYC177, ΔramR/S83I/S80I mutant): > 32 µg/mL
- MIC ([2]; no supplemental plasmid, S83I mutant): 0.5 µg/mL
- MIC ([2]; no supplemental plasmid, S83I/D87N/S80I mutant): 8 µg/mL
- MIC ([2]; no supplemental plasmid, S83I/S80I mutant): 2 µg/mL
- MIC ([2]; no supplemental plasmid, WT (NVT1001), read-out: MIC): 0.06 µg/mL
- MIC ([2]; no supplemental plasmid, ΔramR mutant): 1 µg/mL
- MIC ([2]; no supplemental plasmid, ΔramR/S83I mutant): 16 µg/mL
- MIC ([2]; no supplemental plasmid, ΔramR/S83I/D87N/S80I mutant): > 32 µg/mL
- MIC ([2]; no supplemental plasmid, ΔramR/S83I/S80I mutant): > 32 µg/mL
